How the values were obtained:
S. aureus Newman [1] = experiment: Bliss interaction score (quartile over a dose matrix) (fitness difference); higher = more antagonism (negative = synergy)
Method in brief: (§1)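 Each OD595 reading at entry into stationary phase was scaled to the robust mean of the untreated wells on its plate, with a ceiling of 1. These ratios define fitness, and single-drug fitness was inferred from combinations. The Bliss score compares observed fitness with the product-based expectation and is reported as quartiles across all replicate types, technical, biological and donor/recipient.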

B. subtilis 168 [2] = experiment: as above
Method in brief: as §1

S. aureus DSM 20231 = experiment: as above
Method in brief: as §1

S. pneumoniae D39V = experiment: as above
Method in brief: as §1

S. aureus Newman [3] = experiment: fitness (endpoint OD595 vs no drug) (fraction); higher = more growth; settings: one replicate
Method in brief: (§2)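 Background-subtracted growth curves were the basis for fitness, taken as the optical density at entry into stationary phase over the robust mean of no-drug control wells. A cap of 1 was applied. The curves came from OD595 readings every 30 min for 14 h at 37 °C, in 384-well plates seeded at OD595 0.01 with 30 µl, or 55 µl for S. pneumoniae.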

B. subtilis 168 [4] = experiment: as above
Method in brief: as §2
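For Bliss interaction score (quartile over a dose matrix) in this document: first quartile when negative (synergy) and third quartile when positive (antagonism).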

CO/N=C(\C(=O)N[C@@H]1C(=O)N2C(C(=O)O)=C(COC(N)=O)CS[C@H]12)c1ccco1 [Cefuroxime] + CCN(CC)CCOC(=O)c1ccc(N)cc1 [Procaine]
Settings	Bliss interaction score
B. subtilis 168 [2]	0.0619
S. aureus DSM 20231	0.0947
S. aureus Newman [1]	-0.0324
S. pneumoniae D39V	-0.0452

fitness
Settings	first compound 0.04875 µg/mL	first compound 0.0975 µg/mL	first compound 0.195 µg/mL
B. subtilis 168 [4], partner 85.5 µg/mL	0.756	0.685	0.527
B. subtilis 168 [4], partner 171 µg/mL	0.762	0.65	0.512
B. subtilis 168 [4], partner 342 µg/mL	0.75	–	0.519
S. aureus Newman [3], partner 85.5 µg/mL	0.953	0.92	0.904
S. aureus Newman [3], partner 171 µg/mL	0.962	0.904	0.905
S. aureus Newman [3], partner 342 µg/mL	0.947	0.907	0.902

fitness, B. subtilis 168 [4], one replicate
Settings	first compound 1.562 µg/mL	first compound 3.125 µg/mL	first compound 6.25 µg/mL
partner 85.5 µg/mL	0.348	0.28	0.225
partner 171 µg/mL	0.288	0.256	0.153
partner 342 µg/mL	0.293	0.233	0.202

CO/N=C(\C(=O)N[C@@H]1C(=O)N2C(C(=O)O)=C(COC(N)=O)CS[C@H]12)c1ccco1 [Cefuroxime] + CN1C2=CC=CC=C2N=C3C1=CC=CC3=O [Pyocyanin]
Settings	Bliss interaction score
B. subtilis 168 [2]	0.0646
S. aureus DSM 20231	-0.0629
S. aureus Newman [1]	-0.0853
S. pneumoniae D39V	-0.0309

fitness
Settings	first compound 0.04875 µg/mL	first compound 0.0975 µg/mL	first compound 0.195 µg/mL
B. subtilis 168 [4], partner 1.25 µg/mL	–	–	0.53
B. subtilis 168 [4], partner 2.5 µg/mL	0.719	–	0.513
B. subtilis 168 [4], partner 5 µg/mL	0.59	0.501	0.463
S. aureus Newman [3], partner 1.25 µg/mL	0.903	0.869	0.897
S. aureus Newman [3], partner 2.5 µg/mL	0.84	0.779	0.864
S. aureus Newman [3], partner 5 µg/mL	0.504	0.451	0.472

fitness, B. subtilis 168 [4], one replicate
Settings	first compound 1.562 µg/mL	first compound 3.125 µg/mL	first compound 6.25 µg/mL
partner 1.25 µg/mL	0.331	0.306	0.24
partner 2.5 µg/mL	0.308	0.258	0.192
partner 5 µg/mL	0.253	0.215	0.184

CO/N=C(\C(=O)N[C@@H]1C(=O)N2C(C(=O)O)=C(COC(N)=O)CS[C@H]12)c1ccco1 [Cefuroxime] + C[C@@H]1O[C@@H]1P(=O)(O)O [Fosfomycin]
Settings	Bliss interaction score
B. subtilis 168 [2]	-0.0716
S. aureus DSM 20231	0.0278
S. aureus Newman [1]	0.0983
S. pneumoniae D39V	0.0411

fitness
Settings	first compound 0.04875 µg/mL	first compound 0.0975 µg/mL	first compound 0.195 µg/mL
B. subtilis 168 [4], partner 1.562 µg/mL	0.464	0.419	0.39
B. subtilis 168 [4], partner 3.124 µg/mL	0.363	0.337	0.28
B. subtilis 168 [4], partner 6.248 µg/mL	0.293	0.245	0.194
S. aureus Newman [3], partner 0.781 µg/mL	0.803	0.7	0.632
S. aureus Newman [3], partner 1.562 µg/mL	0.56	0.508	0.438
S. aureus Newman [3], partner 3.124 µg/mL	0.12	0.0863	0.0573

fitness, B. subtilis 168 [4], one replicate
Settings	first compound 0.39 µg/mL	first compound 0.78 µg/mL	first compound 1.562 µg/mL	first compound 3.125 µg/mL	first compound 6.25 µg/mL
partner 1.562 µg/mL	0.344	0.301	0.179	0.136	0.113
partner 3.124 µg/mL	0.331	0.235	0.17	0.122	0.133
partner 6.248 µg/mL	0.189	0.131	0.0925	0.0543	0.0496

CO/N=C(\C(=O)N[C@@H]1C(=O)N2C(C(=O)O)=C(COC(N)=O)CS[C@H]12)c1ccco1 [Cefuroxime] + CC1=C(C(=O)O)N2C(=O)[C@@H](NC(=O)[C@H](N)c3ccccc3)[C@H]2SC1 [Cephalexin]
Settings	Bliss interaction score
B. subtilis 168 [2]	-0.0402
S. aureus DSM 20231	0.0711
S. aureus Newman [1]	-0.0321
S. pneumoniae D39V	0.0313

fitness
Settings	first compound 0.04875 µg/mL	first compound 0.0975 µg/mL	first compound 0.195 µg/mL
B. subtilis 168 [4], partner 0.25 µg/mL	0.709	0.683	0.507
B. subtilis 168 [4], partner 0.5 µg/mL	0.729	0.706	0.527
S. aureus Newman [3], partner 0.5 µg/mL	0.925	0.883	0.943
S. aureus Newman [3], partner 1 µg/mL	0.99	0.917	0.941
S. aureus Newman [3], partner 2 µg/mL	≥ 1	0.967	0.949

fitness, B. subtilis 168 [4], one replicate
Settings	first compound 0.04875 µg/mL	first compound 0.0975 µg/mL	first compound 0.195 µg/mL	first compound 1.562 µg/mL	first compound 3.125 µg/mL	first compound 6.25 µg/mL
partner 0.125 µg/mL	0.871	0.73	0.654	0.31	0.24	0.218
partner 0.25 µg/mL	–	–	–	0.236	0.238	0.197
partner 0.5 µg/mL	–	–	–	0.24	0.179	0.109
partner 1 µg/mL	0.545	0.533	0.354	–	–	–

CO/N=C(\C(=O)N[C@@H]1C(=O)N2C(C(=O)O)=C(COC(N)=O)CS[C@H]12)c1ccco1 [Cefuroxime] + CN[C@@H]1[C@H](O[C@H]2[C@H](O[C@H]3[C@H](O)[C@@H](O)[C@H](N=C(N)N)[C@@H](O)[C@@H]3N=C(N)N)O[C@@H](C)[C@]2(O)C=O)O[C@@H](CO)[C@H](O)[C@H]1O [Streptomycin]
Settings	Bliss interaction score
B. subtilis 168 [2]	-0.123
S. aureus DSM 20231	-0.357
S. aureus Newman [1]	0.335
S. pneumoniae D39V	0.0384

fitness
Settings	first compound 0.04875 µg/mL	first compound 0.0975 µg/mL	first compound 0.195 µg/mL	first compound 1.562 µg/mL	first compound 3.125 µg/mL	first compound 6.25 µg/mL
B. subtilis 168 [4], partner 2 µg/mL	0.722	0.664	0.6	0.132	0.088	0.0549
B. subtilis 168 [4], partner 4 µg/mL	–	–	0.164	0.0266	0.015	0.0149
B. subtilis 168 [4], partner 8 µg/mL	0.0543	0.0254	0.0361	0.032	0.0257	0.0148
S. aureus Newman [3], partner 2 µg/mL	0.826	0.746	0.814	–	–	–
S. aureus Newman [3], partner 4 µg/mL	0.944	≥ 1	0.781	–	–	–
S. aureus Newman [3], partner 8 µg/mL	0.994	0.963	0.81	–	–	–

— the supplement of paper PMC10627819
